Data: PMC4441592 (Neuron, 2015)
Peptide text beside a SMILES is read from it.

Experiments:
[1] = molecular target: KOR (Homo sapiens, UniProt P41145); assay: cell-based
[2] = molecular target: KORD (D138N hKOR) (Homo sapiens, UniProt P41145, D138N); assay: cell-based; settings: EC50(nM)
Chain of KORD (D138N hKOR) (P41145 whole entry D138N): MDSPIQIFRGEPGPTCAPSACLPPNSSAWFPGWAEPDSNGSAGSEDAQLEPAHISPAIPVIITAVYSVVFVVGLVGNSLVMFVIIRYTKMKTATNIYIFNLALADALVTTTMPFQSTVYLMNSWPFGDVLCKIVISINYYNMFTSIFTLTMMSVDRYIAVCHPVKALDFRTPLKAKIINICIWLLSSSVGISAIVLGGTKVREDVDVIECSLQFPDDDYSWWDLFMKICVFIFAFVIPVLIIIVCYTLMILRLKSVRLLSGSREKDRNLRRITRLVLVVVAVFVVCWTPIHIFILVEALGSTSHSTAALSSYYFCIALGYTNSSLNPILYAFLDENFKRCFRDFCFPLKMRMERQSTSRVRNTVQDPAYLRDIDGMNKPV

Chain of KOR (P41145 whole entry): as the sequence (P41145 whole entry D138N) above, with N138D counted along it

| Compound | Emax [1] [%] | EC50 ([1]; EC50(nM)) [nM] | EC50 ([1]; pEC50 ± SEM) [nM] | EC50 [2] [nM] |
| --- | --- | --- | --- | --- |
| CSCC[C@H](NC(=O)[C@H](Cc1ccccc1)NC(=O)CNC(=O)CNC(=O)[C@@H](N)Cc1ccc(O)cc1)C(=O)N[C@@H](CCCNC(=N)N)C(=O)N[C@@H](CCCNC(=N)N)C(=O)N[C@H](C(=O)NCC(=O)N[C@@H](CCCNC(=N)N)C(=O)N1CCC[C@H]1C(=O)N[C@@H](CCC(=O)O)C(=O)O)C(C)C [BAM 12] (H-YGGFMRRVGRPE-OH) | 99 | 101 | 102 | > 10000 |
| CSCC[C@H](NC(=O)[C@H](Cc1ccccc1)NC(=O)CNC(=O)CNC(=O)[C@@H](N)Cc1ccc(O)cc1)C(=O)N[C@@H](CCCNC(=N)N)C(=O)N[C@@H](CCCNC(=N)N)C(=O)N[C@H](C(=O)NCC(=O)N[C@@H](CCCNC(=N)N)C(=O)N1CCC[C@H]1C(=O)N[C@@H](CCC(=O)O)C(=O)N[C@@H](Cc1c[nH]c2ccccc12)C(=O)N[C@@H](Cc1c[nH]c2ccccc12)C(=O)N[C@@H](CCSC)C(=O)N[C@@H](CC(=O)O)C(=O)N[C@@H](Cc1ccc(O)cc1)C(=O)N[C@@H](CCC(N)=O)C(=O)O)C(C)C [BAM 18] (H-YGGFMRRVGRPEWWMDYQ-OH) | 97 | 85 | 85.1 | > 10000 |
| CSCC[C@H](NC(=O)[C@H](Cc1ccccc1)NC(=O)CNC(=O)CNC(=O)[C@@H](N)Cc1ccc(O)cc1)C(=O)N[C@@H](CCCNC(=N)N)C(=O)N[C@@H](CCCNC(=N)N)C(=O)N[C@H](C(=O)NCC(=O)N[C@@H](CCCNC(=N)N)C(=O)N1CCC[C@H]1C(=O)N[C@@H](CCC(=O)O)C(=O)N[C@@H](Cc1c[nH]c2ccccc12)C(=O)N[C@@H](Cc1c[nH]c2ccccc12)C(=O)N[C@@H](CCSC)C(=O)N[C@@H](CC(=O)O)C(=O)N[C@@H](Cc1ccc(O)cc1)C(=O)N[C@@H](CCC(N)=O)C(=O)N[C@@H](CCCNC(=N)N)C(=O)N[C@@H](Cc1ccc(O)cc1)C(=O)NCC(=O)O)C(C)C [BAM 22] (H-YGGFMRRVGRPEWWMDYQRYG-OH) | 95 | 93 | 93.3 | > 10000 |
| CC(C)C[C@H](NC(=O)[C@H](Cc1ccccc1)NC(=O)CNC(=O)CNC(=O)[C@@H](N)Cc1ccc(O)cc1)C(=O)N[C@@H](CCCNC(=N)N)C(=O)O [Dynorphin A(1-6)] (H-YGGFLR-OH) | 86 |  |  |  |
| CC(C)C[C@H](NC(=O)[C@H](Cc1ccccc1)NC(=O)CNC(=O)CNC(=O)[C@@H](N)Cc1ccc(O)cc1)C(=O)N[C@@H](CCCNC(=N)N)C(=O)N[C@@H](CCCNC(=N)N)C(=O)O [Dynorphin A(1-7)] | 97 |  |  |  |
| CC[C@H](C)[C@H](NC(=O)[C@H](CCCNC(=N)N)NC(=O)[C@H](CCCNC(=N)N)NC(=O)[C@H](CC(C)C)NC(=O)[C@H](Cc1ccccc1)NC(=O)CNC(=O)CNC(=O)[C@@H](N)Cc1ccc(O)cc1)C(=O)O [Dynorphin A(1-8)] | 94 |  |  |  |
| CC[C@H](C)[C@H](NC(=O)[C@H](CCCN=C(N)N)NC(=O)[C@H](CCCN=C(N)N)NC(=O)[C@H](CC(C)C)NC(=O)[C@H](Cc1ccccc1)NC(=O)CNC(=O)CNC(=O)[C@@H](N)Cc1ccc(O)cc1)C(=O)N[C@@H](CCCN=C(N)N)C(=O)O [Dynorphin A(1-9)] (H-YGGFLRRIR-OH) |  | 127 | 129 | > 10000 |
| CC[C@H](C)[C@H](NC(=O)[C@H](CCCNC(=N)N)NC(=O)[C@H](CCCNC(=N)N)NC(=O)[C@H](CC(C)C)NC(=O)[C@H](Cc1ccccc1)NC(=O)CNC(=O)CNC(=O)[C@@H](N)Cc1ccc(O)cc1)C(=O)N[C@@H](CCCNC(=N)N)C(=O)O [Dynorphin A(1-9)] (H-YGGFLRRIR-OH) | 93 |  |  |  |
| CC(C)C[C@H](NC(=O)[C@H](Cc1ccccc1)NC(=O)CNC(=O)CNC(=O)[C@@H](N)Cc1ccc(O)cc1)C(=O)N[C@@H](CCCNC(=N)N)C(=O)N[C@@H](CCCNC(=N)N)C(=O)N[C@@H](CCC(N)=O)C(=O)N[C@@H](Cc1ccccc1)C(=O)N[C@@H](CCCCN)C(=O)N[C@H](C(=O)N[C@H](C(=O)N[C@H](C(=O)O)[C@@H](C)O)C(C)C)C(C)C [Dynorphin B(1-13)] | 100 |  |  |  |
| CSCC[C@H](NC(=O)[C@H](Cc1ccccc1)NC(=O)CNC(=O)CNC(=O)[C@@H](N)Cc1ccc(O)cc1)C(=O)N[C@@H](CCCNC(=N)N)C(=O)N[C@@H](Cc1ccccc1)C(=O)O [Met-enkephalin-Arg-Phe] (H-YGGFMRF-OH) | 99 |  |  |  |
| CSCC[C@H](NC(=O)[C@H](Cc1ccccc1)NC(=O)CNC(=O)CNC(=O)[C@@H](N)Cc1ccc(O)cc1)C(=O)O [Met-enkephalin] | 79 |  |  |  |
| CSCC[C@H](NC(=O)[C@H](Cc1ccccc1)NC(=O)CNC(=O)CNC(=O)[C@@H](N)Cc1ccc(O)cc1)C(=O)N[C@@H](CCCNC(=N)N)C(=O)N[C@@H](CCCNC(=N)N)C(=O)N[C@H](C(N)=O)C(C)C [Metorphamide] | 97 | 108 | 102 | > 10000 |
| CSCC[C@H](NC(=O)[C@H](Cc1ccccc1)NC(=O)CNC(=O)CNC(=O)[C@@H](N)Cc1ccc(O)cc1)C(=O)N[C@@H](CCCNC(=N)N)C(=O)N[C@@H](CCCNC(=N)N)C(=O)N[C@H](C(=O)NCC(=O)N[C@@H](CCCNC(=N)N)C(=O)N1CCC[C@H]1C(=O)N[C@@H](CCC(=O)O)C(=O)N[C@@H](Cc1c[nH]c2ccccc12)C(=O)N[C@@H](Cc1c[nH]c2ccccc12)C(=O)N[C@@H](CCSC)C(=O)N[C@@H](CC(=O)O)C(=O)N[C@@H](Cc1ccc(O)cc1)C(=O)N[C@@H](CCC(N)=O)C(=O)N[C@@H](CCCNC(=N)N)C(=O)N[C@@H](Cc1ccc(O)cc1)C(=O)NCC(=O)NCC(=O)N[C@@H](Cc1ccccc1)C(=O)N[C@@H](CC(C)C)C(=O)O)C(C)C [Peptide E] (H-YGGFMRRVGRPEWWMDYQRYGGFL-OH) | 95 | 65 | 66.1 | > 10000 |
| CC(C)C[C@H](NC(=O)[C@H](Cc1ccccc1)NC(=O)CNC(=O)CNC(=O)[C@@H](N)Cc1ccc(O)cc1)C(=O)N[C@@H](CCCNC(=N)N)C(=O)N[C@@H](CCCCN)C(=O)N[C@@H](Cc1ccc(O)cc1)C(=O)N1CCC[C@H]1C(=O)N[C@@H](CCCCN)C(=O)O [α-Neoendrophin] (H-YGGFLRKYPK-OH) | 95 | 64 | 64.6 | > 10000 |
| CC[C@H](C)[C@H](NC(=O)[C@H](C)NC(=O)[C@H](CC(N)=O)NC(=O)[C@H](CCCCN)NC(=O)[C@H](Cc1ccccc1)NC(=O)[C@H](CC(C)C)NC(=O)[C@@H](NC(=O)[C@@H](NC(=O)[C@H](CC(C)C)NC(=O)[C@@H]1CCCN1C(=O)[C@@H](NC(=O)[C@H](CCC(N)=O)NC(=O)[C@H](CO)NC(=O)[C@H](CCCCN)NC(=O)[C@H](CCC(=O)O)NC(=O)[C@H](CO)NC(=O)[C@@H](NC(=O)[C@H](CCSC)NC(=O)[C@H](Cc1ccccc1)NC(=O)CNC(=O)CNC(=O)[C@@H](N)Cc1ccc(O)cc1)[C@@H](C)O)[C@@H](C)O)C(C)C)[C@@H](C)O)C(=O)N[C@H](C(=O)N[C@@H](CCCCN)C(=O)N[C@@H](CC(N)=O)C(=O)N[C@@H](C)C(=O)N[C@@H](Cc1ccc(O)cc1)C(=O)O)[C@@H](C)CC [β-Endorphin (1-27)] (H-YGGFMTSEKSQTPLVTLFKNAIIKNAY-OH; N-terminus and C-terminus assumed) | 100 | 700 | 708 | > 10000 |
